Measured values reported in patent US5004756A, “Anti-cancer activity potentiator” (priority 1988, dated 1991).
Converted amounts (≈) assume the structure as drawn. *1 amine or outer side, *2 acyl side, *3 side chain or, on linkers, in order; H or OH if unused. Where a SMILES comes first, the peptide text is derived from it. Bridges are numbered along the chain shown (N, C = ends). Roman numbers before positions name the chains, in order. [ ]: non-standard residue; d: D form. Actinocin(9to1) = Cc1c2oc3c(C)ccc(C(=O)[*:1])c3nc-2c(C(=O)[*:2])c(N)c1=O; NMeV = CN[C@H](C(=O)O)C(C)C; Sar = CNCC(=O)O

Legend:
[1] = tested on: clinically isolated human cancer cells (lung adenocarcinoma, lung squamous cell carcinoma, osteosarcoma, ovarian carcinoma); assay: Anti-tumor activity on clinically isolated human cancer cells, morphological changes (A-I Part 2); assay type: cell-based
V79/ADM [2] = assay: Anti-cancer activity potentiating action, colony formation, V79/ADM resistant cells (A-III); assay type: cell-based, Chinese hamster; conditions: for IC50: Cricetulus griseus
Description: (§1) The anti-cancer activity potentiating action of the malate of formula (I) was examined using Chinese hamster cells (sensitive cell line V79/S and ADM-resistant cell line V79/ADM), human hepatoma cells (sensitive cell line PLC/S and colchicin-resistant cell line PLC/Col) and mouse leukemia cells (sensitive cell line L5178Y/S) and aclarubicin-resistant cell line L5178Y/ACR).
(§2) Of these tumor cells, the sensitive cells (400 cells) and the resistant cells (600 cells) were each incubated in 10 ml of Eagle's MEM medium containing 10% bovine serum for 24 hours, and then each of the test drugs indicated in Table 6 was added. Thereafter, the incubation was carried out for 9 days. The concentration (IC50 : micrograms/ml) of the test drug required to inhibit 50% of the colony formation (proliferation) of the tumor cells was calculated.
(§3) (A) Chinese hamster V79 cells
(§4) As anti-cancer agents, there were used adriamycin (ADM), aclarubicin (ACR), actinomycin D (ACD), 5-fluorouracil (5-FU), cytarabin (Ara-C), cisplatin (CDDP), methotrexate (MTX), mitomycin C (MMC), nimustine (ACNU), mitoxantrone, etoposide ([…]), vincristine (VCR), bleomycin (BLM) and peplomycin (PEP). For the sensitive cells, the anti-cancer agents were used in combination with 10 micrograms/ml of the malate of formula (I), and for the resistant cells, the anti-cancer agents were used in combination with the malate of formula (I) 3 micrograms/ml, 5 micrograms/ml, and 10 micrograms/ ml.

V79/S [3] = assay: Anti-cancer activity potentiating action, colony formation, V79/S parent cells (A-III); assay type: cell-based, Chinese hamster; conditions: for IC50: Cricetulus griseus
Description: as §1, §2, §3, §4

V79/ADM [4] = assay: Colony formation (proliferation) inhibition, ADM-resistant Chinese hamster cells (A-I Part 1); assay type: cell-based
Description: (§5) Sensitive cell line V79/S and ADM-resistant cell line V79/ADM of the Chinese hamster were used, and sensitive cell line PLC/S and cholchicin-resistant cell line PLC/Col, as human hepatoma cells.
(§6) The sensitive cell lines (400 cells) or the resistant cell lines (600 cells) were each incubated for 24 hours in 10 ml of Eagle's MEM medium containing 10% bovine serum. Each of the drugs indicated in Table 1 below was dissolved in ethanol, and 50 microliters of the resulting solution was added to the medium. The incubation was further carried out for 9 days. The concentration of the drug which inhibits 50% of the colony formation (proliferation) of the tumor cells was calculated.
(§7) V79/S and V79/ADM were tested by using all of the drugs described above, but PLC/S and PLC/Col were tested by using only the malate of formula (I), adriamycin and peplomycin.
(§8) The concentrations (micrograms/ml) required to inhibit 50% of the proliferation of the tumor cells, expressed by IC50, are shown in Table 1.

V79/S [5] = assay: Colony formation (proliferation) inhibition, sensitive Chinese hamster cells (A-I Part 1); assay type: cell-based
Description: as §5, §6, §7, §8

[6] = tested on: P388 mouse leukemia cells; assay: Life prolongation of BDF1 mice with P388 leukemia, combination with CPA; assay type: in vivo, mouse (male BDF1); conditions: for Number of surviving animals: 30 days
Description: Male BDF1 mice having a body weight of 20±2 g, 6 per group, were used. P388 mouse leukemia cells (one week after transplantation) as tumor cells were washed with 0.9% saline and suspended in saline so that the number of the cells reached 5×10^6 /m. The suspension was intraperitoneally administered to the mice at a rate of 0.2 ml (10^6 cells) per mouse.
Twenty-four hours after the transplantation of tumor cells, the malate of formula (I) and cyclophosphamide ([…]) were successively administered intraperitoneally once to the mice, and the life prolongation rate of the mice in each group was determined.
The malate of formula (I) was used after suspending it and Tween 80 at a ratio of 1:5 to saline, and this suspension was diluted with a solution of Tween 80 in the same concentration. CPA, on the other hand, was used as a solution in saline.
CPA (50 mg/kg and 100 mg/kg) and the malate of formula (I) (10 mg/kg and 20 mg/kg) were administered singly or in combination, and the life prolongation rate was determined.

[7] = read-out: IC50, anti-cancer agent alone
[8] = read-out: IC50 in combination with compound (I)
[9] = V79/S, with compound (I) 10 μg/ml
[10] = V79/ADM, with compound (I) 5 μg/ml
[11] = V79/ADM, alone, Table 6, read-out: IC50, anti-cancer agent alone
[12] = V79/S, alone, Table 6, read-out: IC50, anti-cancer agent alone
[13] = V79/S, with compound (I) 10 μg/ml, read-out: IC50 in combination with compound (I)

Question: Which “Efficacy ratio (rated significant by Fisher's test)” value ([1]; 0.01 μg/ml) does the source give for `Cc1c2oc3c(C)ccc(C(=O)N[C@@H]4C(=O)N[C@H](C(C)C)C(=O)N5CCC[C@H]5C(=O)N(C)CC(=O)N(C)[C@@H](C(C)C)C(=O)O[C@@H]4C)c3nc-2c(C(=O)N[C@@H]2C(=O)N[C@H](C(C)C)C(=O)N3CCC[C@H]3C(=O)N(C)CC(=O)N(C)[C@@H](C(C)C)C(=O)O[C@@H]2C)c(N)c1=O` [ACD, actinomycin D] (I: T[dV]P[Sar][NMeV] / II: T[dV]P[Sar][NMeV]; ester I:1-I:C, II:1-II:C; linker I:N-II:N via Actinocin(9to1)) here?
Answer: 0/8

Question: What about the IC50 (V79/ADM [2]; [7]) of the same compound?
Answer: 0.28 µg/mL

Question: And the IC50 (V79/ADM [2]; [8])?
Answer: 0.0063 µg/mL

Question: What about the Potentiation activity (V79/ADM [2]; V79/ADM, with compound (I) 10 μg/ml) of the same compound?
Answer: 44.4 times

Question: What about the IC50 (V79/S [3]; [7]) of the same compound?
Answer: 0.017 µg/mL

Question: What about the IC50 (V79/S [3]; [8]) of the same compound?
Answer: 0.0032 µg/mL

Question: What about the Potentiation activity (V79/S [3]; [9]) of the same compound?
Answer: 5.3 times

Question: And the IC50 (V79/ADM [4]; Cricetulus griseus, 216 h)?
Answer: 0.28 µg/mL (≈ 0.223 µM)

Question: What about the IC50 (V79/S [5]; Cricetulus griseus, 216 h) of the same compound?
Answer: 0.017 µg/mL (≈ 0.0135 µM)

Question: For `Cc1ncc(CNC(=O)N(CCCl)N=O)c(N)n1` [ACNU, nimustine], which “Efficacy ratio (rated significant by Fisher's test)” value ([1]; 2.0 μg/ml) is on record?
Answer: 3/8

Question: And the IC50 (V79/ADM [2]; [7])?
Answer: 10 µg/mL

Question: What about the IC50 (V79/ADM [2]; [8]) of the same compound?
Answer: 3.1 µg/mL

Question: What about the Potentiation activity (V79/ADM [2]; [10]) of the same compound?
Answer: 3.20 times

Question: What about the IC50 (V79/S [3]; [7]) of the same compound?
Answer: 7.6 µg/mL

Question: And the IC50 (V79/S [3]; [8])?
Answer: 5.4 µg/mL

Question: And the Potentiation activity (V79/S [3]; [9])?
Answer: 1.4 times

Question: For `Nc1ccn([C@@H]2O[C@H](CO)[C@@H](O)[C@@H]2O)c(=O)n1` [Ara-C, cytarabin], which IC50 (V79/ADM [2]; [11]) is on record?
Answer: 220 nM

Question: And the IC50 (V79/ADM [2]; V79/ADM, with compound (I) 5 μg/ml, read-out: IC50 in combination with compound (I))?
Answer: 35 nM

Question: And the Potentiation activity (V79/ADM [2]; [10])?
Answer: 6.3 times

Question: What about the IC50 (V79/S [3]; [12]) of the same compound?
Answer: 76 nM

Question: What about the IC50 (V79/S [3]; [13]) of the same compound?
Answer: 54 nM

Question: And the Potentiation activity (V79/S [3]; [9])?
Answer: 1.4 times

Question: `[NH2][Pt]([NH2])([Cl])[Cl]` [CDDP, cisplatin] was tested. Which “Efficacy ratio (rated significant by Fisher's test)” value ([1]; 0.5 μg/ml) did it give?
Answer: 4/8

Question: And the “IC50, anti-cancer agent alone” value (V79/ADM [2]; V79/ADM, alone, Table 6)?
Answer: 0.32 µg/mL

Question: And the “IC50 in combination with compound (I)” value (V79/ADM [2]; [10])?
Answer: 0.13 µg/mL

Question: And the Potentiation activity (V79/ADM [2]; [10])?
Answer: 2.5 times

Question: What about the “IC50, anti-cancer agent alone” value (V79/S [3]; V79/S, alone, Table 6) of the same compound?
Answer: 0.37 µg/mL

Question: What about the “IC50 in combination with compound (I)” value (V79/S [3]; [9]) of the same compound?
Answer: 0.27 µg/mL

Question: What about the Potentiation activity (V79/S [3]; [9]) of the same compound?
Answer: 1.4 times

Question: What about the IC50 (V79/ADM [4]; V79/ADM, 9 days, Table 1) of the same compound?
Answer: 0.32 µg/mL

Question: And the IC50 (V79/S [5]; V79/S, 9 days, Table 1)?
Answer: 0.37 µg/mL

Question: `O=P1(N(CCCl)CCCl)NCCCO1` (centres unmarked) [CPA, cyclophosphamide] was tested. Which “MST (medium survival time)” value ([6]; CPA 50 mg/kg i.p.) did it give?
Answer: 20.3

Question: And the T/C vs control ([6]; CPA 50 mg/kg i.p.)?
Answer: 201%

Question: And the “T/C vs CPA alone” value ([6]; CPA 50 mg/kg i.p. (reference group))?
Answer: 100%

Question: What about the “Number of surviving animals” value ([6]; CPA 50 mg/kg i.p.) of the same compound?
Answer: 0/6

Question: What about the “MST (medium survival time)” value ([6]; CPA 100 mg/kg i.p.) of the same compound?
Answer: 24.0

Question: What about the T/C vs control ([6]; CPA 100 mg/kg i.p.) of the same compound?
Answer: 238%

Question: What about the “T/C vs CPA alone” value ([6]; CPA 100 mg/kg i.p. (reference group)) of the same compound?
Answer: 100%

Question: And the “Number of surviving animals” value ([6]; CPA 100 mg/kg i.p.)?
Answer: 1/6

Question: `O=P1(N(CCCl)CCCl)NCCCO1` (centres unmarked) [CPM] was tested. Which “Efficacy ratio (rated significant by Fisher's test)” value ([1]; 10 μg/ml) did it give?
Answer: 3/8

Question: How did the “Efficacy ratio (rated significant by Fisher's test)” value ([1]; 0.1 μg/ml) turn out when `COC(COC(N)=O)C1=C(N2CC2)C(=O)C(C)=C(N2CC2)C1=O` (centres unmarked) [CQ, carboquone] was run?
Answer: 1/8

Question: With `COc1cc([C@@H]2c3cc4c(cc3[C@@H](O[C@@H]3O[C@@H]5CO[C@@H](C)O[C@H]5[C@H](O)[C@H]3O)[C@H]3COC(=O)[C@H]23)OCO4)cc(OC)c1O` [Etoposide, etoposide] as the compound, how does the IC50 (V79/ADM [2]; [11]) read?
Answer: > 20 µg/mL

Question: What about the IC50 (V79/ADM [2]; V79/ADM, with compound (I) 3 μg/ml, read-out: IC50 in combination with compound (I)) of the same compound?
Answer: 7.4 µg/mL

Question: What about the Potentiation activity (V79/ADM [2]; V79/ADM, with compound (I) 3 μg/ml) of the same compound?
Answer: 2.7 times

Question: And the IC50 (V79/S [3]; [12])?
Answer: 0.27 µg/mL

Question: What about the IC50 (V79/S [3]; [13]) of the same compound?
Answer: 0.098 µg/mL

Question: And the Potentiation activity (V79/S [3]; [9])?
Answer: 2.8 times
